These results are taken from patent US5185341A, “Substituted 5-(phenoxyalkanoylamino)-uracil compounds, methods for making same and pharmaceutical compositions based on same” (Arzneimittelwerk Dresden GMBH, priority 1990, dated 1993).

Broadly, the LD50 is the dose at which mortality reaches 50%. Read a low LD50 as greater toxicity.

Data set [1] in a line: Toxicity test in mouse (LD50, intraperitoneal application). Particulars: in vivo, ip. From the text: The results of these toxicity tests on mouse and rat are shown in the following table as well as the effective dosage: […]
For data set [2] the following is noted: Arzneimittelforschung 27(1977) p. 132; cited from earlier work.
For data set [3] the following is noted: Antibiotiki 24(1979) p.659; cited from earlier work.

Where a name gives a salt, the structure may show the parent alone. A value given as a limit tells only on which side of the number the result lay.

In data set [1], `CN(C)CCOC(=O)COc1ccc(Cl)cc1` [Meclofenoxate HCl] showed an LD50 of 856 mg/kg.

Regarding `Cn1c(N)c(NC(=O)COc2ccc(Cl)cc2)c(=O)n(C)c1=O` [Example 4, 4-amino-5-(p-Chlorophenoxy-acetamido)-1,3-dimethyluracil], the 50% lethal dose (LD50) in data set [1] is more than 1700 mg/kg.

`Cc1c(NC(=O)COc2ccc(Cl)cc2)c(=O)n(C)c(=O)n1C` [Example 3] showed an LD50 in data set [1] of more than 1700 mg/kg.

`Cc1[nH]c(=O)n(C)c(=O)c1NC(=O)COc1ccc(Cl)cc1` [Example 1, 5-(p-Chlorophenoxy-acetamido)-1,4-dimethyluracil] yielded an LD50 in data set [1] of more than 1700 mg/kg.

Regarding `Cc1[nH]c(=O)[nH]c(=O)c1NC(=O)COc1ccc(Cl)cc1` [Example 2, 5-(p-Chlorophenoxy-acetamido)-4-methyluracil], the LD50 in data set [1] was found to be 800 mg/kg.

On to `Cc1cc(=O)[nH]c(=O)[nH]1` [6-methyluracil], for which the protection against radiation result in data set [2] is given as “can protect against radiation”. In addition, the antibiotic action entry in data set [3] was “has an antibiotic action”.

For the compound `NC(=O)CN1CCCC1=O` [Piracetam], the LD50 in data set [1] was more than 2000 mg/kg.
